Results reported in US20250221952A1, “METHODS AND COMPOSITIONS FOR LARGE MODIFICATIONS OF ATP OUTPUT BY INNER MITOCHONDRIAL MEMBRANE LATCHING” (priority 2025, published 2025).
Where “and” joins values, the source holds several entries; their conditions need not be identical. Equal entries are not always repeated. Entries after “also recorded” stand apart in the source; their conditions may differ. Where two headings read alike, the source gives them in different places.

Columns and labels:
mitochondrial ATP output = assay: Bicep curls to failure (reps-to-failure) as proxy for ATP output; assay type: in vivo, human; design: key to Latching: ↑: Up-latching is indicated by an up-arrow; ↓: down-latching by a down-arrow; —: others producing no significant effect are indicated by a dash; details: for Latching: Table 1, up-/down-latching of IMM judged by reps-to-failure; for change in reps-to-failure from baseline: 100 mg dose, baseline 11 reps
[1] = in vivo; cited from earlier work

| Structure (SMILES) | latching behaviour as described in words (mitochondrial ATP output) | Latching (mitochondrial ATP output) | further results |
| --- | --- | --- | --- |
| O=C(O)CCC(=O)C(=O)O [AKG, Alpha-ketoglutarate] |  |  | latching behaviour as described in words (mitochondrial ATP output; in vivo): weak up-latcher |
| CN(CC(=O)O)C(=N)N [Creatine] | did not latch | — |  |
| c12c3c4c5c1c1c6c7c2c2c8c3c3c9c4c4c%10c5c5c1c1c6c6c%11c7c2c2c7c8c3c3c8c9c4c4c9c%10c5c5c1c1c6c6c%11c2c2c7c3c3c8c4c4c9c5c1c1c6c2c3c41 [C60, fullerene C60] |  |  | subsequent reps-to-failure performance (mitochondrial ATP output; FIG. 6 curve 624, 3 mg C60 in MCT oil taken at 49 reps after up-latchers and DHM): almost flat |
| O=C(O)c1cc(C(=O)O)c2c(n1)C(=O)C(=O)c1cc(C(=O)O)[nH]c1-2 [PQQ, Pyrroloquinoline quinone] |  |  | effect on fission and fusion reps-to-failure curves (mitochondrial ATP output; FIG. 3A point 340, PQQ increased 5-fold to 100 mg, with one gram AAKG, person after shingles): near instant merger of fission and fusion lines |
| CC(=O)C(=O)O [Pyruvate] |  | — |  |
| OC[C@@H](O)[C@@H](O)[C@H](O)[C@H](O)CO [Mannitol] |  | — |  |
| CCCCOC(=O)C(C)O (centres unmarked) [butyl lactate] | strong down-latchers |  |  |
| O=C(O)CCC(=O)O [Succinic acid] | indirect up-latcher | ↑ | peak reps-to-failure relative to fumaric and/or malic acids (mitochondrial ATP output; combined with AAKG and a neutralizing base): about half; delay of reps-to-failure peak (mitochondrial ATP output; combined with AAKG and a neutralizing base, versus fumaric/malic acids): about 15 minutes |
| COC1=C(OC)C(=O)C(C/C=C(\C)CC/C=C(\C)CC/C=C(\C)CC/C=C(\C)CC/C=C(\C)CC/C=C(\C)CC/C=C(\C)CC/C=C(\C)CC/C=C(\C)CCC=C(C)C)=C(C)C1=O [CoQ-10] |  | — |  |
| Oc1ccc(C=Cc2cc(O)cc(O)c2)cc1 [Resveratrol] |  | ↓ |  |
| O=C(O)CC(=O)C(=O)O [Oxaloacetic acid] |  | ↑ |  |
| CCOC(=O)C(C)O (centres unmarked) [ethyl lactate] | strong down-latchers |  |  |
| OCC(O)CO [Glycerol] | strong down-latcher | ↓ | reps-to-failure after being reduced (mitochondrial ATP output; 3 g, separate trials): 11 reps and 14 reps; reps-to-failure after being knocked down (mitochondrial ATP output; 5 g): 14 reps; reps-to-failure after dose relative to baseline (mitochondrial ATP output; FIG. 3A point 373, 5 g, from up-latched level): down to baseline; reps-to-failure after dose (stabilized) (mitochondrial ATP output; FIG. 4, five grams, from 30 reps): about 13 reps |
| O=C(O)CC(O)(CC(=O)O)C(=O)O [Citric acid] | strongest down-latchers; also recorded: strong down-latcher | ↓ | reps-to-failure after dose (mitochondrial ATP output; 50 mg taken alone, from 20): 11 reps; reps-to-failure after dose (mitochondrial ATP output; FIG. 11 point 1108, two grams neutralized, from baseline 22 reps, stays flat): 10 reps; bicep curls to failure after dose (mitochondrial ATP output; about 2 g neutralized by bicarbonate, from 24 rep baseline, at 15 and 30 minutes): 11 reps; half-life in the body [1]: about 5 minutes |
| CC(O)C(=O)O (centres unmarked) [Lactic acid] |  | ↑ | reps-to-failure relative to new baseline 350 (mitochondrial ATP output; FIG. 3A points 360-362, after PQQ treatments): above baseline 350; biological half-life [1]: around 20 minutes |
| O=C(O)C(O)C(O)C(=O)O (centres unmarked) [Tartaric acid] |  | ↑ | reps-to-failure after dose (mitochondrial ATP output; 2 g, from 11 reps (after 3 g glycerol)): 21 reps |
| O=C(O)CC(O)C(=O)O (centres unmarked) [Malic acid] |  | ↑ | reps-to-failure after dose (mitochondrial ATP output; as magnesium malate, from 10 reps (after 3 g glycerol and 1 g ethyl lactate), in 2 hours): 21 reps; reps-to-failure results compared with neutralized fumaric acid in FIG. 1 (mitochondrial ATP output; separate trials, neutralized): nearly identical |

| Structure (SMILES) | latching behaviour as described in words (mitochondrial ATP output) | Latching (mitochondrial ATP output) | further results |
| --- | --- | --- | --- |
| OC[C@@H](O)[C@@H](O)CO [Erythritol] | strong down-latchers | ↓ | reps-to-failure after dose (mitochondrial ATP output; FIG. 6 point 630, dosed at up-latched level of about 49 reps): 11 reps |
| O=c1oc2cc(O)ccc2c2ccc(O)cc12 [Urolithin A] |  | ↓ |  |
| O=C1NS(=O)(=O)c2ccccc21 [Saccharin] |  | .— |  |
| O=C(O)CO [Glycolic acid] |  | ↑ | reps-to-failure after dose (mitochondrial ATP output; .7 g, from 14 reps (after 5 g glycerol), in about 1 hour): 28 reps |
| O=C(O)CCCCCCCC(=O)O [Azelaic acid] |  | ↑ | reps-to-failure after dose (mitochondrial ATP output; one gram, used alone, from 13, in 30 minutes): 43 reps |
| O=C(O)CCCCCCC(=O)O [Suberic acid] |  | ↑ |  |
| O=C(O)CCCCC(=O)O [Adipic acid] |  | ↑ | reps-to-failure after dose (mitochondrial ATP output; 1 gram with 1 gram AAKG and sodium bicarbonate, from 11 reps, in 20 minutes): 31 reps |
| O=C1c2c(O)cc(O)cc2O[C@H](c2cc(O)c(O)c(O)c2)[C@H]1O [DHM, Dihydromyricetin] | down-latching |  | reps-to-failure after dosing on top of up-latching (mitochondrial ATP output; FIG. 9 curve 924, dosed at point 922 after lactate/AAKG/PQQ, baseline 20 reps, then recovery): substantially below baseline |
| O=C(O)c1cccnc1 [Niacin] | down-latchers |  |  |
| CN(C)c1ccc2nc3ccc(=[N+](C)C)cc-3sc2c1 [methylene blue, reference compound] |  |  | change in reps-to-failure from baseline (mitochondrial ATP output; at 15 minutes): no change; change in reps-to-failure from baseline (mitochondrial ATP output; at one hour): no change |
| O=C(O)/C=C/C(=O)O [Fumaric acid] | one of the best up-latchers | ↑ | reps-to-failure curve compared with curve 124 of the fumaric acid/AAKG combination (mitochondrial ATP output; FIG. 1, dosed singly, neutralized, baseline 12 reps): much lower |
| O=C(O)C(O)c1ccccc1 (centres unmarked) [Mandelic acid] |  | ↑ | reps-to-failure after dose (mitochondrial ATP output; 1 g of salt, from 14 reps (after 3 g glycerol)): 31 reps |
| CC(C)=CCC/C(C)=C/C=C/C(C)=C/C=C/C(C)=C/C=C/C=C(C)/C=C/C=C(C)/C=C/C=C(\C)CCC=C(C)C [Lycopene] |  | ↑ | bicep curls to failure after dose (mitochondrial ATP output; FIG. 7, 100 mg, from baseline of 6 reps, 70 minutes): 32 reps |
| O=C(O)CCCCCC(=O)O [Pimelic acid] |  | ↑ |  |
| CC1=C(/C=C/C(C)=C/C=C/C(C)=C/C=C/C=C(C)/C=C/C=C(C)/C=C/C2=C(C)C[C@@H](O)CC2(C)C)C(C)(C)C[C@H](O)C1 [zeaxanthin] | substantially non-latcher |  | maximum bicep curls to failure after dose (mitochondrial ATP output; FIG. 7 point 706, from baseline of 9 reps, in 15 minutes, then fell back): 14 reps |
| NC(=O)c1cccnc1 [nicotinamide] | down-latchers |  |  |
| OC[C@@H](O)[C@@H](O)[C@H](O)[C@@H](O)CO [Sorbitol] |  | ↓ |  |
